# Test results reported in patent publication US20220362174A1, “Use of R-enantiomer Beta2-agonists for prevent and treatment of pulmonary inflammation and inflammatory remodeling for reduced adverse effects” (priority 2019, published 2022).
# Entries after “also recorded” stand apart in the source; their conditions may differ.
# What was measured:
# NF-κB and MARK pathways = experiment: NF-κB and MARK pathways, cytokines and ROS in LPS sepsis
# Source text: LPS interacts with pathogen recognition receptors such as TLRs would also activate NF-κB and MARK pathways, which would further lead to an over-production of cytokines. […] The “cytokine storm” in sepsis involves in excessive release of INFs, IL-1B, IL-2,4,6,10,12, TNFa and MCP etc.
# In sepsis, there are also over productions of chemokines such as ROS. […] This invention disclosed the similar effects of other RS-racemic, S-enantiomer or R-enantiomer beta2 agonists including: salbutamol, bambuterol, vilanterol, clenterol, salmeterol, formoterol, trantinterol and Indacaterol and other β2 agonists.
# iNOS = iNOS mRNA and protein levels; format: cell-based
# Procedure: (§1) In addition, the concentration of NO in the culture supernatant was measured by assaying the concentrations of nitrite (a stable NO breakdown product) using the Griess assay. […] To investigate (R)-salbutamol role on the level of iNOS, the mRNA and protein levels of iNOS were determined.
# [1] = test system: LPS-induced macrophage RAW264.7 cells; experiment: M1 macrophage cytokines (TNF-α, IL-1β, MCP-1) by ELISA; format: cell-based
# Procedure: (§2) Macrophages were treated without or with (R)/(S)-salbutamol for 1 h prior to LPS stimulation and subsequently incubated for 12 h. […] The fluorescence of the oxidized product (2′,7′-dichlorofluorescein, DCF) was assessed using an LSM710 Laser Scanning Confocal Microscope (Carl Zeiss, Jena, Germany). The concentration of NO in the culture supernatant was measured by assaying the concentrations of nitrite (a stable NO breakdown product) using the Griess assay (Beyotime, Shanghai, China), according to the manufacturer's instructions. The intracellular NO level was detected using the NO-sensitive fluorescence probe DAF-FM DA (Sigma, St. Louis, Mo., USA) (24). Cells were labeled with DAF-FM DA (10 μM) at 37° C. for 30 min and were gently washed three times with PBS. Fluorescence was detected using a LSM710 Laser Scanning Confocal Microscope (Scale bars, 100 μm) (Carl Zeiss, Jena, Germany).
# To confirm that M1 polarization was predominant over M2 polarization after stimulation with LPS, the levels of typical M1 macrophage cytokines (i.e., TNF-α, IL-1β and MCP-1) were quantified using ELISA; these cytokines are mainly synthesized by macrophages and play an important role in inflammatory diseases (35,36). This invention disclosed that TNF-α […] from 2.62-fold to 0.75-fold of control levels following LPS stimulation (FIG. 8A). IL-1β is a hallmark of many chronic inflammatory diseases in humans and is reportedly associated with acute phase reactions (35,37). […] We conclude that LPS is likely to lead to M1 polarization but not M2 polarization.
# [2] = test system: LPS-induced RAW264.7 cells; experiment: NO production (DAF-FM DA probe, Griess assay); format: cell-based
# Procedure: as §2, §1
# RAW264.7 cells = experiment: Cell viability, CCK-8 assay; format: cell-based; settings: up to 100 μM, with or without LPS (100 ng/mL)
smiles,measurement,setting,value
"CC(C)(C)NC[C@H](O)c1ccc(O)c(CO)c1 [R-salbutamol, (R)-Salbutamol]",over production of inducible NO (iNO) and another ROS,NF-κB and MARK pathways; LPS sepsis,significantly prevent and inhibit
same,production or release of cytokines (cytokine storm),NF-κB and MARK pathways; sepsis,significantly reduced
same,iNOS protein levels,iNOS; LPS+ (R)-salbutamol vs LPS,same changes
same,iNOS mRNA level,"iNOS; pretreated plus LPS, vs LPS",decreased; also recorded: inhibited
same,concentration of MCP-1 (ELISA),[1]; LPS alone 1.588 ng/mL,1.15 ng/mL
same,IL-1β (ELISA),[1]; LPS alone 2.24-fold,1.12 fold of control levels
same,TNF-α (ELISA),[1]; LPS alone 2.62-fold,0.75 fold of control levels
same,release and expression of cytokines in LPS induced M1 macrophages (in words),[1]; LPS challenge,inhibited the expression of cytokines
same,production/levels of NO (in words),[2]; LPS-induced cells,significantly decreased; also recorded: inhibited
same,decrease of the level of DAF fluorescence (intracellular NO),"[2]; pretreated before LPS, LPS increased by 424% vs control",2.68 fold
same,"decrease of NO2- expression (Griess assay, culture supernatant)","[2]; pretreatment before LPS, LPS increased 20.25-fold vs control",2.28 fold
same,cell viability,RAW264.7 cells,no changes in cell viability
